Assay results taken from patent US11306094B2, “Stable formulations of 5,10-methylene-(6R)-tetrahydrofolic acid” (MERCK & CIE, priority 2016, dated 2022).
Counter-ions that a name gives are not always drawn.

How the values were obtained:
Clinical safety = format: in vivo; details: patients, doses of up to 200 mg/m^2
[1] = Comparative stability hemisulfate versus sulfate salt (Example 4-1); format: physicochemical
Method: Stability studies were performed as in the examples above. The conditions for the studies are provided with each data set provided. Some of the data in this example is from previous examples herein, but are reproduced here to provide some kind of a side-by-side nature of the presentation of the results.

[2] = Long-term stability of hemisulfate salt, HPLC content; format: physicochemical; details: salt stored in air, 25° C./60% rh
Method: (§1) (b) Stability in 85% Ethanol at Room Temperature (6R)-5,10-CH2-THF hemisulfate salt (3.01 g) was dispersed in 100 ml 85% EtOH at room temperature and stirred for 5 h, then filtered and dried at 30° C. and 8 mbar for 12 hours (over night). […] (c) Stability at High Temperature/Low Pressure (6R)-5,10-CH2-THF hemisulfate salt (2.17 g) was placed in a drying chamber at 65° C. and 8 mbar for 21 h. […] (d) Long-Term Stability of (6R)-5,10-CH2-THF Hemisulfate Salt and Pharmaceutical Composition Thereof In order to determine the long-term stabilities of (6R)-5,10-CH2-THF hemisulfate salt, the salts were stored in air at 25° C. and at 60% relative humidity. The content of (6R)-5,10-CH2-THF hemisulfate salt remaining was measured by HPLC at periodic intervals and is given by comparison with the initial value (% rel.).

[3] = Suspension equilibration stability; format: physicochemical
Description: (a) Suspension equilibration of (6R)-5,10-CH2-THF hemisulfate salt as starting material at temperatures other than room temperature in a variety of solvents and mixture are summarized in Table 10: […]

[4] = Phase I/II study ISO-CC-002, pharmacokinetics/pharmacodynamics versus Levoleucovorin; format: in vivo; details: compared to Levoleucovorin, 32 colon cancer patients
Method: (b) In a single-blinded, randomized phase I/II study (ISO-CC-002) performed on 32 patients diagnosed with colon cancer the pharmacokinetic and pharmacodynamic properties of (6R)-5,10-CH2-THF hemisulfate compared to Levoleucovorin in tumor tissue, adjacent mucosa and blood plasma were investigated. The study was performed at the Sahlgrenska University Hospital in Goteborg, Sweden. […] The concentrations of methylenetetrahydrofolate and tetrahydrofolate in both tumor and adjacent mucosa were also much higher after administration of (6R)-5,10-CH2-THF hemisulfate than those obtained after administration of Levoleucovorin.

[5] = Crystal form stability by XRPD (85% ethanol; high temperature/low pressure); format: physicochemical
Method: as §1

Nc1nc2c(c(=O)[nH]1)N1CN(c3ccc(C(=O)N[C@@H](CCC(=O)O)C(=O)O)cc3)C[C@H]1CN2 [(6R)-5,10-CH2-THF hemisulfate salt, N-[4-[(6aR)-3-amino-1,2,5,6,6a,7-hexahydro-1-oxoimidazo[1,5-f]pteridin-8(9H)-yl]benzoyl]-L-glutamic acid]
safety (Clinical safety): safe | stability compared with the sulfate salt ([1]; 3 batches, various temperatures): remarkably more stable | stability at elevated temperature ([1]; +40° C. and relative humidity of 75%): excellent stability | (6R)-5,10-CH2—THF hemisulfate (% rel) ([2]; 0 months): 100.0 % rel | (6R)-5,10-CH2—THF hemisulfate (% rel) ([2]; 3 months, listed as (6R)-5,10-CH2—THF hemisulfate (batch 1)): 99.7 % rel | (6R)-5,10-CH2—THF hemisulfate (% rel) ([2]; 3 months, listed as (6R)-5,10-CH2—THF hemisulfate (batch 2)): 99.9 % rel | (6R)-5,10-CH2—THF hemisulfate (% rel) ([2]; 3 months, listed as (6R)-5,10-CH2—THF hemisulfate (batch 3)): 99.5 % rel | (6R)-5,10-CH2—THF hemisulfate (% rel) ([2]; 6 months): 99.5 % rel | (6R)-5,10-CH2—THF hemisulfate (% rel) ([2]; 6 months, listed as (6R)-5,10-CH2—THF hemisulfate (batch 2)): 99.9 % rel | (6R)-5,10-CH2—THF hemisulfate (% rel) ([2]; 9 months, listed as (6R)-5,10-CH2—THF hemisulfate (batch 1)): 99.6 % rel | (6R)-5,10-CH2—THF hemisulfate (% rel) ([2]; 9 months, listed as (6R)-5,10-CH2—THF hemisulfate (batch 2)): 100.0 % rel | (6R)-5,10-CH2—THF hemisulfate (% rel) ([2]; 9 months, listed as (6R)-5,10-CH2—THF hemisulfate (batch 3)): 99.4 % rel | (6R)-5,10-CH2—THF hemisulfate (% rel) ([2]; 12 months, listed as (6R)-5,10-CH2—THF hemisulfate (batch 1)): 99.2 % rel | (6R)-5,10-CH2—THF hemisulfate (% rel) ([2]; 12 months, listed as (6R)-5,10-CH2—THF hemisulfate (batch 2)): 99.7 % rel | (6R)-5,10-CH2—THF hemisulfate (% rel) ([2]; 12 months, listed as (6R)-5,10-CH2—THF hemisulfate (batch 3)): 99.1 % rel | (6R)-5,10-CH2—THF hemisulfate (% rel) ([2]; 18 months, listed as (6R)-5,10-CH2—THF hemisulfate (batch 1)): 99.2 % rel | (6R)-5,10-CH2—THF hemisulfate (% rel) ([2]; 18 months, listed as (6R)-5,10-CH2—THF hemisulfate (batch 2)): 99.4 % rel | (6R)-5,10-CH2—THF hemisulfate (% rel) ([2]; 18 months, listed as (6R)-5,10-CH2—THF hemisulfate (batch 3)): 99.0 % rel | (6R)-5,10-CH2—THF hemisulfate (% rel) ([2]; 24 months, listed as (6R)-5,10-CH2—THF hemisulfate (batch 1)): 99.4 % rel | (6R)-5,10-CH2—THF hemisulfate (% rel) ([2]; 24 months, listed as (6R)-5,10-CH2—THF hemisulfate (batch 2)): 99.4 % rel | (6R)-5,10-CH2—THF hemisulfate (% rel) ([2]; 24 months, listed as (6R)-5,10-CH2—THF hemisulfate (batch 3)): 99.0 % rel | (6R)-5,10-CH2—THF hemisulfate (% rel) ([2]; 36 months, listed as (6R)-5,10-CH2—THF hemisulfate (batch 1)): 98.5 % rel | (6R)-5,10-CH2—THF hemisulfate (% rel) ([2]; 36 months, listed as (6R)-5,10-CH2—THF hemisulfate (batch 2)): 99.0 % rel | Observation (suspension equilibration stability) ([3]; 2-PrOH with ~2 mM L-ascorbic acid, 40° C., 3 d): No change | Observation (suspension equilibration stability) ([3]; AcOH saturated with L-ascorbic acid, 50° C., 1 d): No change | Observation (suspension equilibration stability) ([3]; AcOH saturated with L-ascorbic acid, 50° C., 5 d): No change | Observation (suspension equilibration stability) ([3]; H2O, 5° C., 6 d): No change | Observation (suspension equilibration stability) ([3]; MeCN saturated with L-ascorbic acid, 50° C., 5 d): No change | Observation (suspension equilibration stability) ([3]; MeOH/formic acid 1:1, 50° C., 2 h): No change | Observation (suspension equilibration stability) ([3]; PEG4500/EtOH 1:9 saturated with L-ascorbic acid, 50° C., 7 d): No change | Observation (suspension equilibration stability) ([3]; THF with ~2 mM L-ascorbic acid, 40° C., 3 d): No change | Observation (suspension equilibration stability) ([3]; formic acid/THF 1:3, 10-20° C., 6 d): No change | concentrations of methylenetetrahydrofolate and tetrahydrofolate in tumor and adjacent mucosa [4]: much higher | exposure and peak plasma concentrations of methylenetetrahydrofolate [4]: substantially greater | X-ray pattern of crystal form Type 1 (XRPD) ([5]; drying chamber 65° C. and 8 mbar for 21 h): remained unchanged | X-ray pattern of crystal form Type 1 (XRPD) ([5]; stirred in 85% EtOH at room temperature for 5 h): remained unchanged
